Measurements as given in PubChem BioAssay (NCI).
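Exposure lasted 48 hours, with cells grown in 96-well plates and compounds tested at five concentrations. GI50: concentration for 50% inhibition of growth. TGI is the concentration that stops growth completely.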

What was measured:
Test in all cases: NCI-60 cell line screen, 48 h
ACHN renal = tested on: ACHN renal
OVCAR-4 ovarian = tested on: OVCAR-4 ovarian
PC-3 prostate = tested on: PC-3 prostate
LOX IMVI melanoma = tested on: LOX IMVI melanoma
A549 NSCLC = tested on: A549 NSCLC
KM12 colon = tested on: KM12 colon
SF-295 CNS = tested on: SF-295 CNS
UACC-257 melanoma = tested on: UACC-257 melanoma
SNB-19 CNS = tested on: SNB-19 CNS

## O=C1NCC(NC(=O)C(F)(F)F)c2c(Br)sc(Br)c21 (stereo unspecified)
ACHN renal
  TGI: > 100 µM
OVCAR-4 ovarian
  TGI: > 100 µM
PC-3 prostate
  TGI: > 100 µM
LOX IMVI melanoma
  TGI: > 100 µM
A549 NSCLC
  TGI: > 100 µM
KM12 colon
  TGI: > 100 µM
SF-295 CNS
  TGI: > 100 µM
UACC-257 melanoma
  TGI: > 100 µM
SNB-19 CNS
  TGI: > 100 µM

## CNc1ncnc2c1cnn2COCC(O)CO (stereo unspecified)
ACHN renal
  TGI: > 100 µM
OVCAR-4 ovarian
  TGI: > 100 µM
PC-3 prostate
  TGI: > 100 µM
LOX IMVI melanoma
  TGI: > 100 µM
A549 NSCLC
  TGI: > 100 µM
KM12 colon
  TGI: > 100 µM
SF-295 CNS
  TGI: > 100 µM
UACC-257 melanoma
  TGI: > 100 µM
SNB-19 CNS
  TGI: > 100 µM

## Cc1c(N2C(=O)C(Cl)C2c2ccc(Cl)cc2)c(=O)n(-c2ccccc2)n1C (stereo unspecified)
ACHN renal
  TGI: 83.2 µM
OVCAR-4 ovarian
  TGI: > 100 µM
PC-3 prostate
  TGI: > 100 µM
LOX IMVI melanoma
  TGI: 91.6 µM
A549 NSCLC
  TGI: > 100 µM
KM12 colon
  TGI: > 100 µM
SF-295 CNS
  TGI: > 100 µM
UACC-257 melanoma
  TGI: 48.1 µM

## Nc1ccc(-c2nc3ccccc3s2)cc1C(F)(F)F
ACHN renal
  TGI: 28.5 µM
OVCAR-4 ovarian
  GI50: 15.9 µM
  TGI: 32.9 µM
PC-3 prostate
  TGI: 29.1 µM
LOX IMVI melanoma
  TGI: 32.4 µM
A549 NSCLC
  TGI: 37.4 µM
KM12 colon
  TGI: 31.2 µM
SF-295 CNS
  TGI: 32.1 µM
UACC-257 melanoma
  TGI: 29 µM
SNB-19 CNS
  TGI: 33.2 µM

## COc1ccc(/C=C2\C[C@H]3[C@@H]4CCC5=C/C(=N/O)CC[C@]5(C)[C@H]4CC[C@]3(C)\C2=N\O)cc1OC
ACHN renal
  TGI: > 100 µM
OVCAR-4 ovarian
  TGI: > 100 µM
PC-3 prostate
  TGI: > 100 µM
LOX IMVI melanoma
  TGI: > 100 µM
A549 NSCLC
  TGI: > 100 µM
KM12 colon
  TGI: > 100 µM
SF-295 CNS
  TGI: 88.4 µM
UACC-257 melanoma
  TGI: > 100 µM
SNB-19 CNS
  TGI: > 100 µM

## O=C(O)C(SC1=NNC2(C(=O)N1)c1ccccc1-c1ccccc12)SC1=NNC2(C(=O)N1)c1ccccc1-c1ccccc12
ACHN renal
  TGI: > 10 µM
OVCAR-4 ovarian
  TGI: > 10 µM
PC-3 prostate
  TGI: > 10 µM
LOX IMVI melanoma
  TGI: > 10 µM
A549 NSCLC
  TGI: > 10 µM
KM12 colon
  TGI: > 10 µM
SF-295 CNS
  TGI: > 10 µM
UACC-257 melanoma
  TGI: > 10 µM
SNB-19 CNS
  TGI: > 10 µM

## O=C(NCCCN(CCCCN(CCCNC(=O)C(F)(F)F)Cc1ccc2ccccc2c1)Cc1ccc2ccccc2c1)C(F)(F)F
ACHN renal
  TGI: > 100 µM
OVCAR-4 ovarian
  TGI: > 100 µM
PC-3 prostate
  TGI: > 100 µM
LOX IMVI melanoma
  TGI: > 100 µM
A549 NSCLC
  TGI: > 100 µM
KM12 colon
  TGI: > 100 µM
SF-295 CNS
  TGI: > 100 µM
UACC-257 melanoma
  TGI: 4.58 µM

## CC1(C)C2CC(=O)C1(C)C(O)C2Br (stereo unspecified)
ACHN renal
  TGI: > 100 µM
PC-3 prostate
  TGI: > 100 µM
A549 NSCLC
  TGI: > 100 µM
KM12 colon
  TGI: > 100 µM
SF-295 CNS
  TGI: > 100 µM
SNB-19 CNS
  TGI: > 100 µM

## NC(CC1=CS(=O)(=O)c2ccc(Cl)cc21)C(=O)O (stereo unspecified)
ACHN renal
  TGI: > 100 µM
OVCAR-4 ovarian
  TGI: > 100 µM
PC-3 prostate
  TGI: > 100 µM
LOX IMVI melanoma
  TGI: > 100 µM
A549 NSCLC
  TGI: > 100 µM
KM12 colon
  TGI: > 100 µM
SF-295 CNS
  TGI: > 100 µM
UACC-257 melanoma
  TGI: > 100 µM
SNB-19 CNS
  TGI: > 100 µM

## NCCCN1CCN(CCCNc2ccc3nnn4c5ccccc5c(=O)c2c34)CC1
ACHN renal
  TGI: 73.7 µM
OVCAR-4 ovarian
  TGI: 33.1 µM
PC-3 prostate
  TGI: 35.5 µM
LOX IMVI melanoma
  TGI: 26.8 µM
A549 NSCLC
  TGI: > 100 µM
SF-295 CNS
  TGI: 45.2 µM
UACC-257 melanoma
  TGI: > 100 µM
SNB-19 CNS
  TGI: 46.4 µM

## Nc1nc(Cl)cc(NCC2(CO)CCC(CCc3ccccc3)C2)n1 (stereo unspecified)
ACHN renal
  TGI: 29.9 µM
OVCAR-4 ovarian
  TGI: 31.2 µM
PC-3 prostate
  TGI: 43.4 µM
LOX IMVI melanoma
  TGI: 26.3 µM
A549 NSCLC
  TGI: 32 µM
KM12 colon
  TGI: 30.1 µM
SF-295 CNS
  TGI: 21.8 µM
UACC-257 melanoma
  TGI: 22.6 µM
SNB-19 CNS
  TGI: 31.3 µM

## COc1ccc(-c2c3c([nH]c(=S)c2C#N)CC(C)(C)CC3=O)cc1
ACHN renal
  TGI: > 100 µM
OVCAR-4 ovarian
  TGI: > 100 µM
PC-3 prostate
  TGI: > 100 µM
LOX IMVI melanoma
  TGI: > 100 µM
A549 NSCLC
  TGI: > 100 µM
KM12 colon
  TGI: > 100 µM
SF-295 CNS
  TGI: > 100 µM
UACC-257 melanoma
  TGI: > 100 µM
SNB-19 CNS
  TGI: > 100 µM

## O=C(Cc1ccccc1)NN1C(=O)/C(=C\c2ccccc2)SC1=Nc1ccccc1
ACHN renal
  TGI: > 100 µM
OVCAR-4 ovarian
  TGI: > 100 µM
A549 NSCLC
  TGI: > 100 µM
KM12 colon
  TGI: > 100 µM
SF-295 CNS
  TGI: > 100 µM
UACC-257 melanoma
  TGI: > 100 µM
SNB-19 CNS
  TGI: > 100 µM

## N/C(=N\S(=O)(=O)c1c(C(F)(F)F)cccc1C(F)(F)F)Nc1ccc(Cl)cc1
ACHN renal
  TGI: 56 µM
OVCAR-4 ovarian
  TGI: > 100 µM
PC-3 prostate
  TGI: 25.6 µM
LOX IMVI melanoma
  TGI: 48.1 µM
A549 NSCLC
  TGI: > 100 µM
KM12 colon
  TGI: > 100 µM
SF-295 CNS
  TGI: > 100 µM
UACC-257 melanoma
  TGI: 47.7 µM
SNB-19 CNS
  TGI: > 100 µM

## N=C(N)c1ccc(-c2ccc(-c3cccs3)s2)cc1
ACHN renal
  GI50: 1.7 µM
  TGI: 3.14 µM
OVCAR-4 ovarian
  GI50: 1.71 µM
  TGI: 4.24 µM
PC-3 prostate
  GI50: 1.62 µM
  TGI: 3.15 µM
UACC-257 melanoma
  GI50: 1.72 µM
  TGI: 3.15 µM

## C[C@]12CC[C@@H]3c4ccc(O)cc4CC[C@H]3[C@@H]1C/C(=C\c1ccncc1)[C@@H]2O
ACHN renal
  TGI: 28.3 µM
OVCAR-4 ovarian
  TGI: > 100 µM
PC-3 prostate
  TGI: 76.2 µM
A549 NSCLC
  TGI: > 100 µM
KM12 colon
  TGI: 62.2 µM
SF-295 CNS
  TGI: 70.2 µM
UACC-257 melanoma
  TGI: > 100 µM
SNB-19 CNS
  TGI: > 100 µM

## C=C1c2cc3c(cc2CC12Cc1cc4c(cc1C2=O)CCC4)CCC3 (stereo unspecified)
ACHN renal
  TGI: > 100 µM
OVCAR-4 ovarian
  TGI: > 100 µM
PC-3 prostate
  TGI: > 100 µM
LOX IMVI melanoma
  TGI: > 100 µM
A549 NSCLC
  TGI: > 100 µM
SF-295 CNS
  TGI: > 100 µM
UACC-257 melanoma
  TGI: > 100 µM
SNB-19 CNS
  TGI: > 100 µM

## Clc1ccc(CSCCc2ccncc2)cc1Cl
ACHN renal
  TGI: 66 µM
OVCAR-4 ovarian
  TGI: 98.7 µM
PC-3 prostate
  TGI: 45.4 µM
A549 NSCLC
  TGI: 96.2 µM
KM12 colon
  TGI: 50.9 µM
SF-295 CNS
  TGI: 41.8 µM
UACC-257 melanoma
  TGI: > 100 µM
SNB-19 CNS
  TGI: 35.6 µM

## CN(Cc1ccccc1)c1cc(=O)n(C)c(=O)[nH]1
ACHN renal
  TGI: > 100 µM
OVCAR-4 ovarian
  TGI: > 100 µM
PC-3 prostate
  TGI: > 100 µM
LOX IMVI melanoma
  TGI: > 100 µM
A549 NSCLC
  TGI: > 100 µM
SF-295 CNS
  TGI: > 100 µM
UACC-257 melanoma
  TGI: > 100 µM
SNB-19 CNS
  TGI: > 100 µM

## CC(C)=CCC/C(C)=C/COC(C)(C)C1=CCC(C)CC1 (stereo unspecified) (tested in a mixture with another compound)
ACHN renal
  TGI: > 100 µM
OVCAR-4 ovarian
  TGI: > 100 µM
PC-3 prostate
  TGI: > 100 µM
A549 NSCLC
  TGI: > 100 µM
KM12 colon
  TGI: > 100 µM
SF-295 CNS
  TGI: > 100 µM
UACC-257 melanoma
  TGI: > 100 µM
SNB-19 CNS
  TGI: > 100 µM

## CSc1c(C#N)c(N)n(-c2ccc(C)cc2)c(=O)c1C#N
OVCAR-4 ovarian
  TGI: > 100 µM
PC-3 prostate
  TGI: > 100 µM
LOX IMVI melanoma
  TGI: > 100 µM
A549 NSCLC
  TGI: > 100 µM
KM12 colon
  TGI: > 100 µM
UACC-257 melanoma
  TGI: > 100 µM
SNB-19 CNS
  TGI: > 100 µM

## S=C(/N=c1\sc(Nc2ccc(Cl)cc2)nc2sc3c(c12)CCN(N1CCc2c(sc4nc(Nc5ccc(Cl)cc5)s/c(=N\C(=S)Nc5ccc(Cl)cc5)c24)C1)C3)Nc1ccc(Cl)cc1
ACHN renal
  TGI: > 100 µM
PC-3 prostate
  TGI: 87.9 µM
A549 NSCLC
  TGI: > 100 µM
SF-295 CNS
  TGI: > 100 µM
UACC-257 melanoma
  TGI: > 100 µM
SNB-19 CNS
  TGI: > 100 µM

## O=c1[nH]cnc2c1ncn2[C@@H]1C[C@@H]1CO
ACHN renal
  TGI: > 100 µM
OVCAR-4 ovarian
  TGI: > 100 µM
PC-3 prostate
  TGI: > 100 µM
LOX IMVI melanoma
  TGI: > 100 µM
A549 NSCLC
  TGI: > 100 µM
KM12 colon
  TGI: > 100 µM
UACC-257 melanoma
  TGI: > 100 µM
SNB-19 CNS
  TGI: > 100 µM

## Cc1ccc(CC[P+](=O)CCc2ccc(C)nc2)cn1
ACHN renal
  TGI: > 100 µM
OVCAR-4 ovarian
  TGI: > 100 µM
PC-3 prostate
  TGI: > 100 µM
LOX IMVI melanoma
  TGI: > 100 µM
KM12 colon
  TGI: > 100 µM
SF-295 CNS
  TGI: > 100 µM
UACC-257 melanoma
  TGI: > 100 µM
SNB-19 CNS
  TGI: > 100 µM
